The record followed here is patent US20230000843A1, “MEDICINAL COGNITIVE TREATMENTS” (ACTINOGEN MEDICAL LIMITED, priority 2019, published 2023).

In data set [1] the test system is healthy elderly subjects. In words: Cogstate Detection test (simple reaction time, psychomotor function). In kind it is in vivo, human. The protocol: (§1) The test was aimed at assessing if, and to what extent, Xanamem™ 20 mg a day may improve performance in healthy elderly subjects from Baseline (Week 0) to Weeks 2, 4, 6, 8, 10, 12 (End of Treatment) and 16 (Follow-up), as measured by changes in the Cogstate Test Battery. 42 subjects were randomised in which 30 subjects received 20 mg Xanamem™ once a day and 12 subjects received matching placebo once a day.
(§2) For each visit, excluding the Screening visit and safety visits (Week 6 and Week 10), subjects arrived at the study site having fasted for at least 10 hours. The subjects took Xanamem™ at site after all the pre-dose blood samples had been taken. Xanamem™ was taken 30 minutes after the start of a meal. On non-study visit days, the subjects took Xanamem™ at the same time each morning with food (30 minutes after the start of the meal).
(§3) One capsule of Xanamem™, or the matching placebo, was administered orally with approximately 200 mL of warm water once a day and with food in the morning, to the subjects from Baseline (Week 0) to End of Treatment (Week 12) for a total of 12 weeks. […]
For this test, the subject pressed a “YES” response key as soon as they detected an event (a card turning face up presented in the centre of the computer screen). The software measured the response time to detect each event.

For data set [2], the system named is healthy elderly subjects. In words: Cogstate Test Battery overall: impairment of cognition. In kind it is in vivo, human. The conditions noted are these: 20 mg compared to placebo over 12 weeks. Here is the method:
as §1
(§4) To assess the efficacy of Xanamem™ 20 mg once a day in improving cognitive ability in the subjects, the Cogstate Test Battery of the subjects were checked at Baseline (Week 0), Weeks 2, 4, and 8, Week 12 (End of Treatment) and Week 16 (Follow-up).
The Cogstate Test Battery included the following tests: detection test, identification test, one card learning test, one back working memory test, and the continuous paired associate learning test (CPAL; paired associate learning).

The subject of data set [3] is healthy elderly subjects. Briefly: Cogstate One Back working memory test. In kind it is in vivo, human. The protocol:
as §1, §2, §3
The Cogstate One Back memory test is a valid measure of working memory. […] The software measured the speed and accuracy of each response.

Data set [4] concerns healthy elderly subjects. Briefly: Continuous Paired Associate Learning test (CPAL). In kind it is in vivo, human. Here is the method: as §1, §2
(§5) One capsule of Xanamem™, or the matching placebo, was administered orally with approximately 200 mL of warm water once a day and with food in the morning, to the subjects from Baseline (Week 0) to End of Treatment (Week 12) for a total of 12 weeks.
as §4
The Continuous Paired Associate Learning test is a measure of visual associate memory and uses a well-validated paired associate learning paradigm in which the subject must learn the locations of a number of amoeba-like shapes on the computer screen.
Beneath all but two of the blue spheres were amoeboid shapes, one of which matched the central display; the two remaining circles were distractors. In the exposure phase of the test all of the to-be-remembered pattern-location associations were presented on the computer screen simultaneously.
After a five second delay, a pattern was shown in the central location and this signals that the subject should touch the location in the periphery that contained the same pattern. This process continued until the participant had acknowledged all of the pattern-location associations. The learning phase began with the same test display presented during the exposure phase except that now all of the peripheral locations were shown as blue spheres. One of the patterns presented in the exposure phase was presented in the centre location. With the presentation of this pattern, the subject was required to select the peripheral location where an identical pattern was hidden beneath the blue sphere. […]
(§6) Finding the correct location for all patterns in the set was defined as a learning trial. […] The software recorded each move as an error or as a correct move.

The nature of data set [5]: CSF and corresponding plasma concentrations at the EOT visit. In kind it is in vivo. The conditions noted are these: human, oral, 20 mg, four CSF samples at the EOT visit, read-out: ratio of CSF to plasma concentrations. The protocol: The ratio of Xanamem™ CSF to plasma concentrations in the four CSF samples taken at the EOT visit ranged from 0.028 to 0.421; the range of CSF concentrations was 3.48 to 6.25 ng/mL, compared to 11.6 to 126 ng/mL for the corresponding plasma concentrations.

Data set [6] is described as follows: Plasma concentrations and pharmacokinetics. In kind it is in vivo, human. Here is the method: as §1, §2, §5
The mean Xanamem™ plasma concentration at 3-5 hours after the first dose of the study was 169 ng/mL. […] The mean trough concentration at Weeks 2, 4, and 8, was 89, 73, and 78 ng/mL, and the mean 3 to 5 hour concentration was 353. 331, and 330 ng/mL for weeks 2, 4, and 8, respectively.
Only body weight was identified as a covariate impacting PK in this model, confirming that the PK of Xanamem™ are consistent between healthy volunteers, patients with Alzheimer's Disease, and healthy elderly subjects.

For data set [7], the system named is healthy elderly subjects. Briefly: Cogstate Identification test (choice reaction time, visual attention). In kind it is in vivo, human. The protocol:
as §1, §2, §3
In this test an event (a card turning face up) occurred in the centre of the computer screen and the subject decided “YES” or “NO” as to whether this event met a predefined and unchanging criterion (i.e. is the color of the card red?). The software measured the speed and accuracy of each response.

In data set [8] the test system is healthy elderly subjects. Briefly: Continuous Paired Associate Learning-Delayed test. In kind it is in vivo, human. As to conditions: 20 mg once a day orally, 12 weeks, compared to placebo group. The protocol:
as §1, §2, §3, §6

The test system of data set [9] is healthy elderly subjects. Briefly: One Card Learning test (visual recognition learning). In kind it is in vivo, human. Here is the method:
as §1, §2, §5
To assess the efficacy of Xanamem™ 20 mg once a day in improving cognitive ability in the subjects, the Cogstate Test Battery of the subjects were checked at Baseline (Week 0), Weeks 2, 4, and 8, Week 12 (End of Treatment) and Week 16 (Follow-up). […]

The mark [10] stands for this setting: 20 mg once a day orally, 12 weeks, compared to placebo group.
Setting [11] is: 12 weeks treatment, 20 mg versus placebo, statistically significant.

Turning to `O=C(c1csc(-c2cn[nH]c2)c1)N1[C@@H]2CC[C@H]1C[C@](O)(c1ncccn1)C2` [Xanamem™, (5-(1H-Pyrazol-4-yl)thiophen-3-yl)(3-hydroxy-3-(pyrimidin-2-yl)-8-azabicyclo[3.2.1]octan-8-yl)methanone], the “psychomotor function (speed of performance, log10 transformed reaction times for correct responses)” value in data set [1] (setting [10]) is reported as “improved psychomotor function”. In addition, the “effect on Detection test (psychomotor speed)” value in [1] (20 mg versus placebo, by time point) is listed as “evident at week 8”. For the same compound, the “impairment of cognition associated with treatment” value in data set [2] is on record as “no systemic evidence of impairment in any respect of cognition”. Moreover, the “working memory (speed of performance, log10 transformed reaction times for correct responses)” value in data set [3] (setting [10]) was “improved working memory”. Also, the “effect size, speed of performance on One-back test (working memory)” value in data set [3] (setting [11]) is listed as above 0.6. Also, the “Hippocampal dependent learning and memory (number of errors remembering the associations)” value in data set [4] (setting [10]) was “improved Hippocampal dependent learning and memory”. Further, in data set [4] (20 mg versus placebo), the “differences on Continuous Paired Associates Learning Test outcomes” value is “statistically significant differences in data were in favour of Xanamem™ 20 mg”. Besides, the “effect size difference on Continuous Paired Associates Learning Test, sensitivity analysis” value in data set [4] (20 mg versus placebo, Week 4) is recorded as “favoured Xanamem™ 20 mg”. The “effect size (ES) data for Continuous Paired Associates outcomes” value in [4] (20 mg versus placebo, overall) was “tended to favour Xanamem™ 20 mg”. Also, the Kp in data set [5] fell in the range of 0.028 to 0.421. In addition, the “mean 3 to 5 hour plasma concentration” value in data set [6] (Week 2, 20 mg once a day) was determined as 353 ng/mL; in data set [6] (Week 4, 20 mg once a day), 331 ng/mL; in data set [6] (Week 8, 20 mg once a day) it was 330 ng/mL. Moreover, the “mean trough plasma concentration” value in data set [6] (Week 2, 20 mg once a day) is reported as 89 ng/mL; in data set [6] (Week 4, 20 mg once a day), 73 ng/mL; in [6] (Week 8, 20 mg once a day), 78 ng/mL. Moreover, the “mean plasma concentration at 3-5 hours” value in data set [6] (after the first dose, 20 mg oral with food) was found to be 169 ng/mL. For the same compound, the pharmacokinetic model entry in data set [6] (only body weight identified as covariate) is “one-compartment model with first-order absorption and elimination”. In data set [6] (trough and 3-5 hour concentrations consistent across Weeks 2, 4 and 8), the “steady state of plasma concentrations” value is listed as “steady state had been achieved by Week 2”. The “visual attention (speed of performance, log10 transformed reaction times for correct responses)” value in data set [7] (setting [10]) is recorded as “improved visual attention”. Further, the “effect size, speed of performance on Identification test (attention)” value in data set [7] (setting [11]) is listed as above 0.6. The “Hippocampal dependent learning and memory (number of errors remembering the associations after a delay)” value in data set [8] is “improved Hippocampal dependent learning and memory”. Besides, the “visual learning (accuracy of performance, arcsine transformation of proportion of correct responses)” value in [9] (20 mg once a day orally, week 8, compared to placebo group) is on record as “improved visual learning”. Also, the “effect size (ES) data for One Card Learning outcomes” value in data set [9] (20 mg versus placebo, overall) is recorded as “tended to favour Xanamem™ 20 mg”.
